According to patent US20250085285A1, “Methods for Generating Biologically Specific Chromatin Condensates and Uses Thereof” (The Regents of the University of California, priority 2022, published 2025):

Biological target: T1, HP1α-chromatin condensates (Homo sapiens, UniProt P45973)
T1 construct: 6x-His (cleaved yes); made in house; host or cells: E. coli Rosetta BL21 (DE3)
Experiment: HP1α-chromatin condensate in vitro droplet assay / screening (fluorescence imaging)
Assay type: biochemical
Conditions: for Effect of bioactive small molecules on HP1α-chromatin condensates: FIG. 7, Bioactive compound library (Selleck Chemicals), final concentration of 10 μM, H3K9me3 nucleosome arrays
Method: HP1α was diluted to the desired 2× concentration. HP1αKCK was added to HP1α at a ratio of 1:500 HP1α: HP1αKCK for evident fluorescent signal. HP1α-chromatin droplets were formed at 40 nM nucleosome array concentration in 20 mM HEPES pH 7.5, 0.1 mM EDTA and 2× HP1α-HP1αKCK in 20 mM HEPES pH 7.2, 150 mM KCl 1 mM DTT. 10 μL of 80 nM nucleosome arrays (2×) was mixed with 10 μl 2× HP1α-HP1αKCK and incubated at room temperature for 20 minutes before transferring to a glass bottom 384 well plate for imaging.
384 well glass bottom plates (Greiner Sensoplate 781892) were prepared for sample examination as follows: The wells were rinsed three times with 100 μl water, incubated with 100 μl of 2% Hellmanex for 30 mins-1 hour, rinsed with water three times again, incubated with 100 μl of 0.5M NaOH for 30 mins, rinsed with water three times, and then 70 μl of 20 mg/ml mPEG-silane dissolved in 95% EtOH was added to coat the wells. The plate was covered with foil and left overnight at 4° C.
After the overnight, the wells were rinsed with 95% EtOH five times, followed by incubation with 100 mg/ml BSA for 2 hours. Then, the wells were rinsed three times with water and three times with 1× phasing buffer afterwards (20 mM HEPES pH 7.2, 75 mM KCl, 0.05 mM EDTA, 0.5 mM DTT). After, the condensates are added to each well.
To conduct droplet assays at scale, arrays assembled with 540 μg fluorescently labeled array DNA and 1.3 mg of fluorescently labeled HP1α were needed for one 384 well plate. 384 well plates were washed and coated in mPEG-silane in bulk using the Biotek EL406 washer dispenser. HP1α-array droplets were screened against a Bioactive compound library (Selleck Chemicals). These compounds were diluted in 1× phasing buffer (20 mM HEPES pH 7.2, 75 mM KCl, 0.05 mM EDTA, 0.5 mM DTT), and added to the wells for a final concentration of 10 μM in the reaction. The droplets and compounds were dispensed in the 384 wells using the Biomek-FX.
After 3-4 hours of settling to the bottom of the plate, the condensates were imaged on the IN Cell Analyzer 6500HS equipped with a Nikon Plan Apo 40×/0.95NA objective and sCMOS camera. Five field of views per channel were taken per well. Image analysis was conducted using a custom pipeline written in Python using NumPy and SciPy SciKit libraries. Classical image segmentation and quantification techniques were implemented to identify droplets and characterize their geometry, fluorescent intensity, and consequently the effectiveness of the small molecules on the droplets.

T1 sequence (P45973 whole entry): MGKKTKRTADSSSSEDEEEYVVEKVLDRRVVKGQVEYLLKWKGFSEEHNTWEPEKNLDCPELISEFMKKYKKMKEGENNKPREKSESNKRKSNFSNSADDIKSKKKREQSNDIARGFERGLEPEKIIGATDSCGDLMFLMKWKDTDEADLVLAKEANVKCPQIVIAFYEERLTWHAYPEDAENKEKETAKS

Row | Effect of bioactive small molecules on HP1α-chromatin condensates | Molecule | Effect of biologically relevant interaction partners on HP1α-chromatin condensate formation (FIG. 6, interaction partner added to HP1α-chromatin condensates)
1 | dissolve condensates | CN(C)CCN1C(=O)c2cccc3cc(N)cc(c23)C1=O [Amonifide] | –
2 | enhance condensate formation | C#Cc1cccc(Nc2ncnc3cc(OCCOC)c(OCCOC)cc23)c1 [Erlotinib] | –
3 | mild or no effect | CS(=O)(=O)CCNCc1ccc(-c2ccc3ncnc(Nc4ccc(OCc5cccc(F)c5)c(Cl)c4)c3c2)o1 [Lapatinib ditosylate] | –
4 | enhance condensate formation | CS(=O)(=O)c1ccc(C(=O)Nc2ccc(Cl)c(-c3ccccn3)c2)c(Cl)c1 [Vismodegib] | –
5 | dissolve condensates | CC(c1cc2ccccc2s1)N(O)C(N)=O (stereo not drawn) [Zileuton] | –
6 | – | HP1β: heterochromatin protein, biologically relevant interaction partner of HP1α-chromatin condensates | dissolves condensates, making them disappear or smaller
